Drawing on patent US20250171459A1, “2-METHYL-4',5'-DIHYDROSPIRO[PIPERIDINE-4,7'-THIENO[2,3-C]PYRAN] DERIVATIVES AS INHIBITORS OF APOL1 AND METHODS OF USING SAME” (Vertex Pharmaceuticals Incorporated, priority 2022, published 2025), this text covers IC50 for 25 compounds.

This assay concerns the target T1, APOL1 (Homo sapiens, UniProt O14791).
T1 sequence (O14791 1-398 S342G/I384M): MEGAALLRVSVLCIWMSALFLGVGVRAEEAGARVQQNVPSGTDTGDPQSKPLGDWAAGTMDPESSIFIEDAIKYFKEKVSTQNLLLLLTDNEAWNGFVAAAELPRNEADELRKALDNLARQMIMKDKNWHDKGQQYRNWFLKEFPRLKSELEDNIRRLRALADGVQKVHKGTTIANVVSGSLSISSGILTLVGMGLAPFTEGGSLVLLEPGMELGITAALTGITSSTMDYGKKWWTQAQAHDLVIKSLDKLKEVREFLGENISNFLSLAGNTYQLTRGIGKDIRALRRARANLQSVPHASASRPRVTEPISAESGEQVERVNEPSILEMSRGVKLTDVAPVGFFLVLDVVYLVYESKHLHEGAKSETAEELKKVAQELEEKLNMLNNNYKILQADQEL
The experiment in a line: MultiTox-Fluor Multiplex Cytotoxicity Assay in tet-inducible APOL1 T-REx-HEK293 cells (cell rescue, ratio of dead to live cells). The assay is classed as cell-based. To be noted: tet-inducible transgenic APOL1 T-REx-HEK293 cell lines, 50 ng/mL tet, 24 hours; read-out: IP50 (i.e., IC50 for cell proliferation). The procedure, abridged:
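T-REx-HEK293 cells with tet-inducible APOL1 were treated with compound (10 μM top, 10-point 3-fold dilution, duplicate) plus 50 ng/mL tetracycline for 24 h at 37° C, in DMEM with 2% tet-free FBS. MultiTox-Fluor protease signals gave a dead/live ratio, normalized to no tet (100% viability) and tet alone (0%).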
In the case of `CCc1cc2c(s1)CCOC21CCN(CC2CN(C(=O)OC(C)(C)C)C2)CC1` [Compound 1149], the IC50 fell in the range of 0.5 to 1 µM.

Take `CCc1cc2c(s1)CCOC21CCN(CC2CCN(C(=O)OC(C)(C)C)CC2)CC1` [Compound 1150]: the IC50 lay in the range of 0.5 to 1 µM.

With `CCc1cc2c(s1)CCOC21CCN(CC2CCN(S(C)(=O)=O)CC2)CC1` [Compound 1151], the IC50 is 0.5 to 1 µM.

Take `CCc1cc2c(s1)CCOC21CCN(Cc2cc(O)ccn2)CC1` [Compound 1152]: the IC50 lay within 0.5 to 1 µM.

As for `CCc1cc2c(s1)CCOC21CCN(Cc2ccncc2)CC1` [Compound 1153], the IC50 is 0.5 to 1 µM.

For the compound `CCc1cc2c(s1)CCOC21CCN(Cc2ccc(S(C)(=O)=O)cc2F)CC1` [Compound 1154], the IC50 lay in the range of 0.5 to 1 µM.

On to `CCc1cc2c(s1)CCOC21CCN(CC2CC2)CC1` [Compound 1155], for which the IC50 is 0.5 to 1 µM.

Regarding `CCc1cc2c(s1)CCOC21CCN(Cc2cncnc2)CC1` [Compound 1156], the IC50 lay within 0.5 to 1 µM.

Turning to `CCc1cc2c(s1)CCOC21CCN(Cc2ccc(OC)nc2)CC1` [Compound 1157], the IC50 fell in the range of 0.1 to 0.5 µM.

Consider `CCc1cc2c(s1)CCOC21CCN(Cc2cn(C)nn2)CC1` [Compound 1158], for which the IC50 was in the range of 0.5 to 1 µM.

`CCc1cc2c(s1)CCOC21CCN(Cc2ccc(NS(=O)(=O)CCCO)cc2)CC1` [Compound 1159, N-(4-((2′-ethyl-6′,7′-dihydrospiro[piperidine-4,4′-thieno[3,2-c]pyran]-1-yl)methyl)phenyl)-3-hydroxypropane-1-sulfonamide]: the IC50 is < 0.1 µM.

As for `CCc1cc2c(s1)CCOC21CCN(Cc2ccc(NCc3cc[nH]c(=O)c3)cc2)CC1` [Compound 1162], the IC50 is 0.1 to 0.5 µM.

Consider `CCc1cc2c(s1)CCOC21CCN(Cc2ccc(NS(=O)(=O)C3CC3)cc2)CC1` [Compound 1163], for which the IC50 lay in the range of 0.1 to 0.5 µM.

Regarding `Clc1cc2c(s1)CCOC21CCN(Cc2cn[nH]c2)CC1` [Compound 1165, 2-chloro-1′-(1H-pyrazol-4-ylmethyl)spiro[6,7-dihydrothieno[3,2-c]pyran-4,4′-piperidine]], the IC50 was in the range of 0.1 to 0.5 µM.

In the case of `CC(=O)n1cc(CN2CCC3(CC2)OCCc2sc(Cl)cc23)cn1` [Compound 1166], the IC50 lay within 0.1 to 0.5 µM.

Consider `Cn1cc(CN2CCC3(CC2)OCCc2sc(C(F)(F)F)cc23)cn1` [Compound 1167], for which the IC50 fell in the range of 0.1 to 0.5 µM.

For the compound `Cn1cc(CN2CCC3(CC2)OCCc2sc(Cl)cc23)cn1` [Compound 1168], the IC50 was in the range of 0.5 to 1 µM.

Regarding `CS(=O)(=O)CCn1cc(CN2CCC3(CC2)OCCc2cc(Cl)sc23)cn1` [Compound 1169, 2′-chloro-1-((1-(2-(methylsulfonyl)ethyl)-1H-pyrazol-4-yl)methyl)-4′,5′-dihydrospiro[piperidine-4,7′-thieno[2,3-c]pyran]], the IC50 was 0.1 to 0.5 µM.

Take `CCc1cc2c(s1)C[C@@H](C)OC21CCN(Cc2cnn(C)c2)CC1` [Compound 1176]: the IC50 lay in the range of 0.5 to 1 µM.

With `CNS(=O)(=O)CCn1cc(CN2CCC3(CC2)OCC(C)(C)c2sc(Cl)cc23)cn1` [Compound 1177, 2-[4-[(2-chloro-7,7-dimethyl-spiro[6H-thieno[3,2-c]pyran-4,4′-piperidine]-1′-yl)methyl]pyrazol-1-yl]-N-methyl-ethanesulfonamide], the IC50 was < 0.1 µM.

As for `Cn1cc(CN2CCC3(CC2)OCC(C)(C)c2sc(Cl)cc23)cn1` [Compound 1178, 2-chloro-7,7-dimethyl-1′-[(1-methylpyrazol-4-yl)methyl]spiro[6H-thieno[3,2-c]pyran-4,4′-piperidine]], the IC50 was < 0.1 µM.

For the compound `Cn1cc(CN2CCC3(CC2)OCC2(CC2)c2sc(Cl)cc23)cn1` [Compound 1179, 2′-chloro-1″-[(1-methyl-1H-pyrazol-4-yl)methyl]-6′H-dispiro[cyclopropane-1,7′-thieno[3,2-c]pyran-4′,4″-piperidine]], the IC50 was < 0.1 µM.

As for `CS(=O)(=O)CCn1cc(CN2CCC3(CC2)OCC(O)c2cc(Cl)sc23)cn1` (stereo not shown) [Compound 1181, 2-chloro-1′-[[1-(2-methylsulfonylethyl)pyrazol-4-yl]methyl]spiro[4,5-dihydrothieno[2,3-c]pyran-7,4′-piperidine]-4-ol], the IC50 fell in the range of 0.5 to 1 µM.

Turning to `CCc1cc2c(s1)C(CC)COC21CCN(Cc2cn(CCS(C)(=O)=O)nn2)CC1` (stereo not shown) [Compound 1182, 2,7-diethyl-1′-[[1-(2-methylsulfonylethyl)triazol-4-yl]methyl]spiro[6,7-dihydrothieno[3,2-c]pyran-4,4′-piperidine]], the IC50 was in the range of 0.5 to 1 µM.

As to `CCc1cc2c(s1)CCOC21CCN(Cc2cn(C3CS(=O)(=O)C3)nn2)CC1` [Compound 1183], the IC50 is 0.5 to 1 µM.
